Results published in PMC5577515, “Peptide‐Directed Binding for the Discovery of Modulators of α‐Helix‐Mediated Protein–Protein Interactions: Proof‐of‐Concept Studies with the Apoptosis Regulator Mcl‐1” (Angewandte Chemie (International Ed. in English), 2017).
Where two headings read alike, the source gives them in different places. Blank lines part the entries; values can stand above or below the compound they belong to. Peptide text beside a SMILES is read from it. * marks the point of attachment. X2 = COc1ccc(OC)c(-c2cn(CC(=O)*)nn2)c1; X1 = O=C(Cn1cc(-c2ccc(Cl)cc2Cl)nn1)*

Tests used:
Mcl-1 = molecular target: T1, Mcl-1 (UniProt P97287+Q07820); experiment: Competitive fluorescence anisotropy (FA) assay, FITC-NoxaB displacement from Mcl-1; format: binding; conditions: read-out: FA IC50
T1 construct: amino acid residues 152-189 of mouse Mcl-1 fused with amino acid residues 209-327 of; 8 x His (N); TEV site (N); made in house; host or cells: E. coli BL21(DE3)pLysS
T1 sequence (P97287 152-189 limits assumed): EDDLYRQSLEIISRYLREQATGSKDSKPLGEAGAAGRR
T1 sequence (Q07820 209-327 limits assumed): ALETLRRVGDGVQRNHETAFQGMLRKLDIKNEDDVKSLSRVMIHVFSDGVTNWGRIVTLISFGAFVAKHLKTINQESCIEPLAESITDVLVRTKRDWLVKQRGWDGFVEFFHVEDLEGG
Description: Fmoc, 9-fluorenylmethylcarbony. IC50 determined by non -linear regression of at least three experiments.
4. Fluorescence Anisotropy Binding Assay
Fluorescence anisotropy was carried out on a BMG Labtech clariostar microplate reader with a fluorescence anisotropy optic measuring at 482/530 nm. Low -binding, Corning 96 -well black plates were used and all reagents used in the assay were biological grade and purchased from Sigma Aldrich and Novabioche m. All solutions were made using MilliQ water .
Anisotropy values were automatically calculated using the following formula […]
Where r = anisotropy, l a = parallel emission light, lb = perpendicular emission light and I = total […]
KD was determined using GraphPad Prism Version 6.0 software, using the One Site – Total binding […]
Where Bmax is the maximum specific binding, KD is the equilibrium binding constant, and NS is the slope of nonspecific binding. […]
IC50 was determined using GraphPad Prism Version 6.0 software, using a four-parameter logistic model, according to precedent from Ottmann and co-workers.[5] Errors are the transformed greater extreme of the standard error. […]
For binding each well contained 10 µL of Mcl -1 protein in 10-fold dilutions (0.37 pM to 3.7 µM) […]
protein were dissolved in PBS: 0.05% Tween -20 buffer at pH 7.4. Reagents were incubated for 30 min at room temperature prior to reading. Bubbles were removed and 8 data points were generated.
Figure S 1: Fluorescence Anisotropy direct titration.
To confirm reproducibility of
(µ) and standard deviations (σ) were inputted into the following equation:
Inhibition screens were carried out using 10 nM Mcl -1, 5 nM fluorescently-tagged peptide and 100 µM of inhibitor. Compounds were dissolved in DMSO. […]
control (DMSO) were used to define the mini mum and maximum values and ensure the assay was […]
(1 picture or pasted object on this page, not shown here) […]
Bubbles were removed and 8 data points were generated. […]

MiaPaCa-2 cells = experiment: MTS cytotoxicity assay, MiaPaCa-2; format: cell-based; conditions: 37 °C, triplicate, at least three experiments, errors = transformed greater extreme of standard error, read-out: MiaPaCa-2 cell growth inhibition IC50
Description: (§1) CUSTOM_[…] ("<1>=[N+]",("charge", 0, 2)) […]
(§2) CUSTOM_[…] ("<1>=[N]=[N]",("bond",1,(2,3))) […]
(§3) CUSTOM_[…] ("<1>([C]=[C])=[N][N]",("bond",1,(3,5))) […]
(§4) The MiaPaCa-2 cell line, BxPC-3 cell line and AsPC-1 cell line were purchased from the European Collection of Cell Cultures (ECACC, Porton Down, UK). MiaPaCa-2 cells were cultured in DMEM media with 2 mM L-glutamine, 100 U/mL penicillin, 100 µg/mL streptomycin and 10% FCS.
(§5) BxPC-3 cells and AsPC-1 cells were cultured in RPMI-1640 media containing 2 mM L-glutamine, 100 U/mL penicillin, 100 µg/mL streptomycin and 10% FCS. Cells were sub-cultured twice weekly and maintained at 37 °C and 5% CO2.
(§6) The anti-proliferative activity of the compounds studied was assessed by MTS assay (Promega) following the manufacturer’s instructions. Cells were seeded at 5 x 103 / 100 μL in a 96-well plate and left untreated or treated with DMSO (vehicle control), or compounds 1-4 (100 μM – […], in well concentration) in triplicate for 72 h at 37 °C with 5% CO2. Following this, MTS assay reagent was added to each well and the plates incubated for 4 h at 37 °C with 5% CO2. The absorbance was measured at 492 nm using the BMG Labtech POLARstarOPTIMA microplate reader. […]

BxPC-3 cells = experiment: MTS cytotoxicity assay, BxPC-3; format: cell-based; conditions: 37 °C, triplicate, at least three experiments, errors = transformed greater extreme of standard error, read-out: BxPC-3 cell growth inhibition IC50
Description: as §1, §2, §3, §4, §5, §6

AsPC-1 cells = experiment: MTS cytotoxicity assay, AsPC-1; format: cell-based; conditions: 37 °C, triplicate, at least three experiments, errors = transformed greater extreme of standard error, read-out: AsPC-1 cell growth inhibition IC50
Description: as §1, §2, §3, §4, §5, §6

[1] = Table S1, binding inhibition of FITC-NoxaB to Mcl-1, * less than 100 µM and greater than 10 µM, accurate IC50 not determined
[2] = Table S2, binding inhibition of FITC-NoxaB to Mcl-1, small molecules not tested against cell lines, at least three experiments, errors = transformed greater extreme of standard error, SEM

IC50 (Mcl-1; [1]): < 100 µM
Compound: AAQLRRIGD [Compound S1]

IC50 (Mcl-1; SEM): 0.1 ± 0.1 µM
Compound: COc1ccc(OC)c(-c2cn(CC(=O)N[C@@H](CCCCN)C(=O)N[C@H](C(=O)N[C@@H](CC(N)=O)C(=O)N[C@@H](CC(C)C)C(=O)N[C@@H](CCCNC(=N)N)C(=O)N[C@@H](CCC(N)=O)C(=O)N[C@@H](CCCCN)C(=O)N[C@@H](CC(C)C)C(=O)N[C@@H](CC(C)C)C(=O)N[C@@H](CC(N)=O)C(N)=O)C(C)C)nn2)c1 [Compound 9] (X2-KVNLRQKLLN-NH2)

IC50 (Mcl-1; SEM): 1.68 ± 0.694 µM
Compound: C1=C(c2cn(Cc3ccccc3)nn2)CCCC1 [Compound 22, 1-benzyl-4-(cyclohex-1-en-1-yl)-1H-1,2,3-triazole]
IC50 (MiaPaCa-2 cells; Homo sapiens, MIA PaCa-2, 72 h): > 100 µM | IC50 (BxPC-3 cells; Homo sapiens, BXPC-3, 72 h): > 100 µM | IC50 (AsPC-1 cells; Homo sapiens, ASPC1, 72 h): > 100 µM

IC50 (Mcl-1; SEM): 5.8 ± 4.6 µM
Compound: CC[C@H](C)[C@H](NC(=O)[C@H](CCCNC(=N)N)NC(=O)[C@H](CCCNC(=N)N)NC(=O)[C@H](CC(C)C)NC(=O)[C@H](CCC(N)=O)NC(=O)[C@H](C)NC(=O)[C@H](C)NC(C)=O)C(=O)NCC(=O)N[C@@H](CC(=O)O)C(=O)N[C@@H](Cc1cn(CC(=O)O)nn1)C(N)=O [Compound 4]

IC50 (Mcl-1; [1]): < 100 µM
Compound: KVNLRQKLLN [Compound S2]

IC50 (Mcl-1; Table S2, binding inhibition of FITC-NoxaB to Mcl-1, small molecules not tested against cell lines, at least three experiments, errors = transformed greater extreme of standard error): > 100 µM
Compound: CCCCCCCc1cn(C23CC4CC(CC(C4)C2)C3)nn1 [Compound S18]

IC50 (Mcl-1; [2]): 0.766 ± 0.484 µM
Compound: Cc1ccc(-c2cn(CC(=O)O)nn2)c(C)c1 [Compound S12]

IC50 (Mcl-1; [2]): 5.28 ± 1.69 µM
Compound: COC(=O)[C@H](Cc1cn(CC(=O)O)nn1)NC(=O)OCC1c2ccccc2-c2ccccc21 [Compound S16]

IC50 (Mcl-1; [2]): 1.37 ± 0.938 µM
Compound: Fc1ccccc1Cn1cc(-c2ccccc2Cl)nn1 [Compound S14]

IC50 (Mcl-1; Table 1, inhibition of binding of 5 nM FITC-NoxaB to 10 nM Mcl-1, PBS, 0.05% Tween-20, pH 7.4, non-linear regression of at least three experiments, errors = transformed greater extreme of standard error, [b] <100 means <100 μM and >10 μM, accurate value not determined): < 100 µM
Compound: AAQLRRIGD [Compound 5]

IC50 (Mcl-1; Table 2, inhibition of binding of 5 nM FITC-NoxaB to 10 nM Mcl-1, PBS, 0.05% Tween-20, pH 7.4, non-linear regression of at least three experiments, errors = transformed greater extreme of standard error, SEM): 2.21 ± 0.877 µM
Compound: COC(=O)[C@H](Cc1cn(Cc2ccccc2C)nn1)NC(=O)OCC1c2ccccc2-c2ccccc21 [Compound 24, methyl (S)-2-((((9H-fluoren-9-yl)methoxy)carbonyl)amino)-3-(1-(2-methylbenzyl)-1H-1,2,3-triazol-4-yl)propanoate]
IC50 (MiaPaCa-2 cells; 72 h, SEM): 2.14 ± 0.56 µM | IC50 (BxPC-3 cells; 72 h, SEM): 10.7 ± 2.72 µM | IC50 (AsPC-1 cells; 72 h, SEM): 2.28 ± 1.44 µM

IC50 (Mcl-1; SEM): 0.4 ± 0.3 µM
Compound: CC[C@H](C)[C@H](NC(=O)[C@H](CCCNC(=N)N)NC(=O)[C@H](CCCNC(=N)N)NC(=O)[C@H](CC(C)C)NC(=O)[C@H](CCC(N)=O)NC(=O)[C@H](C)NC(=O)[C@H](C)NC(C)=O)C(=O)NCC(=O)N[C@@H](CC(=O)O)C(=O)N[C@@H](Cc1cn(Cc2ccccc2F)nn1)C(N)=O [Compound 2]

IC50 (Mcl-1; [2]): 0.561 ± 0.13 µM
Compound: O=C(O)Cn1cc(-c2ccc([N+](=O)[O-])cc2)nn1 [Compound S11]

IC50 (Mcl-1; SEM): 8.3 ± 3.6 µM
Compound: CC(C)C[C@H](NC(=O)[C@H](CC(C)C)NC(=O)[C@H](CCCCN)NC(=O)[C@H](CCC(N)=O)NC(=O)[C@H](CCCNC(=N)N)NC(=O)[C@H](CC(C)C)NC(=O)[C@H](CC(N)=O)NC(=O)[C@@H](NC(=O)[C@H](CCCCN)NC(=O)Cn1cc(-c2ccc(Cl)cc2Cl)nn1)C(C)C)C(=O)N[C@@H](CC(N)=O)C(N)=O [Compound 14] (X1-KVNLRQKLLN-NH2)
